Data: ChEMBL document CHEMBL1201862, “PubChem BioAssay data set” (2004)
Values joined by “and” are separate entries in the source; they are usually repeats but may differ in a detail not shown here. Equal entries are not always repeated. Blank lines part the entries; values can stand above or below the molecule they belong to. Active and inactive are the calls of the source.

How the values were obtained:
Assay type in all cases: functional
[1] = target: T1, Apoptotic protease-activating factor 1 (Homo sapiens, UniProt O14727); assay: activation of Apaf-1 mediated apoptosis – fluorescent, uHTS hits, dose response (AID 588554)
T1 sequence (O14727 whole entry): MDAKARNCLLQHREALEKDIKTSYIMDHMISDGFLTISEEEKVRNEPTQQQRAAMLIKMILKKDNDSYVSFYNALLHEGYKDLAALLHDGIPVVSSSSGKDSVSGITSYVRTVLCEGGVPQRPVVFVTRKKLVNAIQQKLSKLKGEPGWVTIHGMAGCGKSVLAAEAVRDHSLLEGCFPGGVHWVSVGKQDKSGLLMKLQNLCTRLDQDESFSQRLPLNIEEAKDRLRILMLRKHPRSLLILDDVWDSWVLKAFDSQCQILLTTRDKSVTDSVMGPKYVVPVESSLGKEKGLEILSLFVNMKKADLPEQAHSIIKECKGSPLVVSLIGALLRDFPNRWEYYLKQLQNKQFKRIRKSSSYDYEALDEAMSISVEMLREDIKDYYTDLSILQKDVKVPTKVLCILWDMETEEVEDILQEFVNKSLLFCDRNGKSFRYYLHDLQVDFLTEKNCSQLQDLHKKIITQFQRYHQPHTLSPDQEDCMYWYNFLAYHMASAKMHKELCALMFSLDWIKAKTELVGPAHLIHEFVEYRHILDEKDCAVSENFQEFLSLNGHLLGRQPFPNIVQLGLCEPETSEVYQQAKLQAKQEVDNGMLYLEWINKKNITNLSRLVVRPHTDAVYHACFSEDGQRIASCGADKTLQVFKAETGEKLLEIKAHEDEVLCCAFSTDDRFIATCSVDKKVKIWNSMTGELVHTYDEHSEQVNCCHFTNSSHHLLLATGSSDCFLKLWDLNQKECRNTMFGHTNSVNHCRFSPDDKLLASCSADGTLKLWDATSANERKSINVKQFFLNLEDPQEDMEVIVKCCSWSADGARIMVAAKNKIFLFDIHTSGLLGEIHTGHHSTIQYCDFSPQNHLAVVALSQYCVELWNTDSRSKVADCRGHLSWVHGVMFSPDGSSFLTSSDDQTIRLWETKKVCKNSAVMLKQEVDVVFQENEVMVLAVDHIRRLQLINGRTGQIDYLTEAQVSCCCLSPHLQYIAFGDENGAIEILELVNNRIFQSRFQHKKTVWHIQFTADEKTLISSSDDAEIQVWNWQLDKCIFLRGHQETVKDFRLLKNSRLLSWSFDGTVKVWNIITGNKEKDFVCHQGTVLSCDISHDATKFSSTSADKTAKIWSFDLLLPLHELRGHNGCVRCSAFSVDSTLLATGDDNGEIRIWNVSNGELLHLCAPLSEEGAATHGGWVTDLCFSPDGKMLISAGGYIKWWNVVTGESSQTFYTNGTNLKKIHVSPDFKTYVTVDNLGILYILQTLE

[2] = SAR analysis of small molecule activators of Apaf-1 using a LZ-Caspase-9/Caspase-3 Fluorescent Selectivity assay - Set 2.; conditions: read-out: EC50_Mean
[3] = target: T1, Apoptotic protease-activating factor 1; assay: SAR analysis of small molecule Activators of Apaf-1 in a Fluorescent assay.; conditions: read-out: EC50_Mean
[4] = target: T1, Apoptotic protease-activating factor 1; assay: SAR analysis of small molecule Activators of Apaf-1 in a Fluorescent assay - set 2.; conditions: read-out: EC50_Mean
[5] = target: Melanin-concentrating hormone receptor 1 (Homo sapiens, UniProt Q99705); assay: Late-stage fluorescence-based counterscreen for antagonists of the G-protein coupled receptor 7 (GPR7): cell-based dose response assay to identify antagonists of the melanin-concentrating hormone receptor 1 (MCHR1) Set 6.
[6] = target: Neuropeptides B/W receptor type 1 (Homo sapiens, UniProt P48145); assay: GPR7 antagonist potency, late-stage follow-up, cell-based, fluorescence, dose response, set 6 (AID 588583)
Aurora kinase B = Aurora kinase B (Homo sapiens, UniProt Q96GD4)
[7] = target: Serine/threonine-protein kinase TAO1 (Homo sapiens, UniProt Q7L7X3)
[8] = target: Fibroblast growth factor receptor 1 (Homo sapiens, UniProt P11362)
Sequence of Fibroblast growth factor receptor 1 (P11362 whole entry): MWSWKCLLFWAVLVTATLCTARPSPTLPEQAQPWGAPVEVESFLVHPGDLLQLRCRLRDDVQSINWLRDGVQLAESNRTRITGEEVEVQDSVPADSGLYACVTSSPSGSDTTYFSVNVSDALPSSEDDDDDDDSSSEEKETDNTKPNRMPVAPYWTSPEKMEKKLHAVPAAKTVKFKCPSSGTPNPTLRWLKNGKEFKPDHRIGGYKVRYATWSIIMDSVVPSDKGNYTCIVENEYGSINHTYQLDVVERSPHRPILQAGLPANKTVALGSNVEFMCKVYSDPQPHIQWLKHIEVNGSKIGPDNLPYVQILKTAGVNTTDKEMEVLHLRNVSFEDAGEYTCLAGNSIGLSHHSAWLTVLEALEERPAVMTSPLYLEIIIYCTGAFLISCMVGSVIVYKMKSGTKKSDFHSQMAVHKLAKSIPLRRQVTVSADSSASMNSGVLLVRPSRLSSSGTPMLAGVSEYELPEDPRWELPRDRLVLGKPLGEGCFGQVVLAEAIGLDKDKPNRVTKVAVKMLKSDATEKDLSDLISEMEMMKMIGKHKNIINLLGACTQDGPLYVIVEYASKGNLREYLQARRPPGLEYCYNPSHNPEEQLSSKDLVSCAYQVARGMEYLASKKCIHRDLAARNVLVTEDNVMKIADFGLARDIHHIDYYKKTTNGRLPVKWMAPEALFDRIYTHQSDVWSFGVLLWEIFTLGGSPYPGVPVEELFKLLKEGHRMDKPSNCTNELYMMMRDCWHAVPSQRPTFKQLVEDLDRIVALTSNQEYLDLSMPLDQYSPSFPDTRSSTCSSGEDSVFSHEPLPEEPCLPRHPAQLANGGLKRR

[9] = target: Dual specificity tyrosine-phosphorylation-regulated kinase 1A (Homo sapiens, UniProt Q13627);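 further: measured against DYRK1A as one member of a broad kinome profiling panel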
[10] = target: Dual specificity protein kinase CLK4 (Homo sapiens, UniProt Q9HAZ1)
[11] = target: Vascular endothelial growth factor receptor 1 (Homo sapiens, UniProt P17948);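 further: measured within a kinome-wide profiling panel, FLT1 as the panel member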
[12] = target: BDNF/NT-3 growth factors receptor (Homo sapiens, UniProt Q16620);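 further: NTRK2 measured as one member of a broad kinome-wide kinase profiling panel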
[13] = target: ALK tyrosine kinase receptor (Homo sapiens, UniProt Q9UM73);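 further: ALK tested as one member of a kinase panel screen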
[14] = target: Tyrosine-protein kinase BTK (Homo sapiens, UniProt Q06187)
[15] = target: Ribosomal protein S6 kinase alpha-3 (Homo sapiens, UniProt P51812);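 further: measured within a kinome-wide profiling panel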
[16] = target: High affinity nerve growth factor receptor (Homo sapiens, UniProt P04629);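 further: NTRK1 tested as one member of a kinome-wide profiling panel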
[17] = target: Serine/threonine-protein kinase PAK 4 (Homo sapiens, UniProt O96013);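 further: value obtained within a kinome profiling panel in which PAK4 was one of the panel members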
[18] = target: G protein-coupled receptor kinase 5 (Homo sapiens, UniProt P34947); assay: Navigating the Kinome. Panel member name: GPRK5
[19] = target: Cyclin-dependent kinase 8 (Homo sapiens, UniProt P49336); assay: Navigating the Kinome. Panel member name: CDK8
[20] = target: Tyrosine-protein kinase JAK3 (Homo sapiens, UniProt P52333)
Activated CDC42 kinase 1 = Activated CDC42 kinase 1 (Homo sapiens, UniProt Q07912); assay: Navigating the Kinome. Panel member name: ACK1
[21] = target: Dual specificity protein kinase CLK2 (Homo sapiens, UniProt P49760)
[22] = target: 5'-AMP-activated protein kinase catalytic subunit alpha-1 (Homo sapiens, UniProt Q13131)
[23] = target: Mitogen-activated protein kinase 8 (Homo sapiens, UniProt P45983);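 further: value comes from one member of a kinome-wide kinase profiling panel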
[24] = target: Leukocyte tyrosine kinase receptor (Homo sapiens, UniProt P29376); assay: Navigating the Kinome. Panel member name: LTK
[25] = target: Tyrosine-protein kinase Fyn (Homo sapiens, UniProt P06241)
Sequence of Tyrosine-protein kinase Fyn (P06241 whole entry): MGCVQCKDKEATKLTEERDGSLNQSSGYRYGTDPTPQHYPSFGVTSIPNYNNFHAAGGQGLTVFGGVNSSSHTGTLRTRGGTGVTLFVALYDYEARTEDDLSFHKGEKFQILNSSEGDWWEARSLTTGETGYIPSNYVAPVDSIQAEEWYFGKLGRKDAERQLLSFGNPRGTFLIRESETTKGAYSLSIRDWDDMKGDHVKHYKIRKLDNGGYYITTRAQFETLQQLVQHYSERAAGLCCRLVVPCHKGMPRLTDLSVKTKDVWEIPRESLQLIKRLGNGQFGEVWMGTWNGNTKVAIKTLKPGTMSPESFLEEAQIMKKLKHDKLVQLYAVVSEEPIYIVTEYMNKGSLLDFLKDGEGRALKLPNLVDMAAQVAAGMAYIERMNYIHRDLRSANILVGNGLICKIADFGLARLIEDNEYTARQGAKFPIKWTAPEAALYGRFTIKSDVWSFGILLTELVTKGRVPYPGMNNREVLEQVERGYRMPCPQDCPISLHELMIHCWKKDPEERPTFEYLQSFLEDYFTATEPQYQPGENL

[26] = target: Glycogen synthase kinase-3 beta (Homo sapiens, UniProt P49841);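 further: value comes from a broad kinome profiling panel, with GSK3B as the panel member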
[27] = target: Rho-associated protein kinase 1 (Homo sapiens, UniProt Q13464);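 further: measured within a broad kinome-wide panel profiling many kinases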
[28] = target: Dual specificity mitogen-activated protein kinase kinase 2 (Homo sapiens, UniProt P36507); assay: Navigating the Kinome. Panel member name: MAP2K2
Sequence of Dual specificity mitogen-activated protein kinase kinase 2 (P36507 whole entry): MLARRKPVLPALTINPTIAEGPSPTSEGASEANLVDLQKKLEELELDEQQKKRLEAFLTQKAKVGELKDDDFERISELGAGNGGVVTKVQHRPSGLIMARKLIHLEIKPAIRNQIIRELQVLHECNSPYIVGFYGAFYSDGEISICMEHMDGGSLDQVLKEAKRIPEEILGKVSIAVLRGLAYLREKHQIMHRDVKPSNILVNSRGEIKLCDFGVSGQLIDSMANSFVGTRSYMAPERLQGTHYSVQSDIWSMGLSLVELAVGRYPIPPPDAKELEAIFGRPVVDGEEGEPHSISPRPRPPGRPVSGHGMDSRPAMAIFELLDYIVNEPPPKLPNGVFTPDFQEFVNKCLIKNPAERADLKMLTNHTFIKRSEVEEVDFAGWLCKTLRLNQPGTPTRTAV

[29] = target: Mitogen-activated protein kinase kinase kinase kinase 2 (Homo sapiens, UniProt Q12851);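 further: measured as one member of a kinome-wide kinase panel, with MAP4K2 as the panel entry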
[30] = target: Dual specificity tyrosine-phosphorylation-regulated kinase 1B (Homo sapiens, UniProt Q9Y463); assay: Navigating the Kinome. Panel member name: DYRK1B
[31] = target: Glycogen synthase kinase-3 alpha (Homo sapiens, UniProt P49840);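 further: GSK3A result taken from a broad kinome-wide kinase panel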
[32] = target: cAMP-dependent protein kinase catalytic subunit PRKX (Homo sapiens, UniProt P51817)
[33] = target: Receptor-type tyrosine-protein kinase FLT3 (Homo sapiens, UniProt P36888);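 further: FLT3 was tested as one member of a kinome-wide kinase panel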
Sequence of Receptor-type tyrosine-protein kinase FLT3 (P36888 whole entry): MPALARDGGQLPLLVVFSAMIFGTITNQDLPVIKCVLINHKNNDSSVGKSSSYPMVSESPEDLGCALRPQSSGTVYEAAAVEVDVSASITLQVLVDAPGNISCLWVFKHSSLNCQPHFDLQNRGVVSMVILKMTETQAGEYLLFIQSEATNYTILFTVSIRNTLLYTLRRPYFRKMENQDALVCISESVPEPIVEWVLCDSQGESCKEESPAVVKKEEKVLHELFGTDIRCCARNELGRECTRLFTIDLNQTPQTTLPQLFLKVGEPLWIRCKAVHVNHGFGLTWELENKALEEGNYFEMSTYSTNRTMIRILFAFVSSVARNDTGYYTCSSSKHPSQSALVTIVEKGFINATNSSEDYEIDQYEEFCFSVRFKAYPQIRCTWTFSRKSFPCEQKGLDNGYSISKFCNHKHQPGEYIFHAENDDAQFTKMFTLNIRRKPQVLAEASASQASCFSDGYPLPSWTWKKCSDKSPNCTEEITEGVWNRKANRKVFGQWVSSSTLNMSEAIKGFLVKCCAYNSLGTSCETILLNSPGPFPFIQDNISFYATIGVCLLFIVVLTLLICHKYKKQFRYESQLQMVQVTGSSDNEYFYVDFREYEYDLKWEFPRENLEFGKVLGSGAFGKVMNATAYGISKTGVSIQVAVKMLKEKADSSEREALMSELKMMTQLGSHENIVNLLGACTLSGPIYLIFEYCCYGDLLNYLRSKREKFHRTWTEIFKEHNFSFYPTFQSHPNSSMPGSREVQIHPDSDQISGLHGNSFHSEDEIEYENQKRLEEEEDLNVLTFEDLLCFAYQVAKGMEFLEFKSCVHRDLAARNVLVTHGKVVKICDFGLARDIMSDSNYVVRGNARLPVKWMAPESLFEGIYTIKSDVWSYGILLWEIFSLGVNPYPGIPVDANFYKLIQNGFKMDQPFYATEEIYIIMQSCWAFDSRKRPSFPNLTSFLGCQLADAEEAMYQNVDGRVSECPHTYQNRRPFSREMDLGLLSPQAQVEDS

[34] = target: Calcium/calmodulin-dependent protein kinase type II subunit alpha (Homo sapiens, UniProt Q9UQM7); assay: Navigating the Kinome. Panel member name: CAMK2A
[35] = target: Hepatocyte growth factor receptor (Homo sapiens, UniProt P08581);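 further: kinase panel profiling across the kinome, with MET as the panel member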
[36] = target: Inhibitor of nuclear factor kappa-B kinase subunit epsilon (Homo sapiens, UniProt Q14164); assay: Navigating the Kinome. Panel member name: IKBKE
[37] = target: Macrophage colony-stimulating factor 1 receptor (Homo sapiens, UniProt P07333);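 further: value comes from the Navigating the Kinome screening panel, CSF1R member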
[38] = target: Serine/threonine-protein kinase pim-1 (Homo sapiens, UniProt P11309)
[39] = target: Leucine-rich repeat serine/threonine-protein kinase 2 (Homo sapiens, UniProt Q5S007);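 further: value from a broad kinome-wide panel profiling study in which LRRK2 was one of the kinases tested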
[40] = target: Vascular endothelial growth factor receptor 2 (Homo sapiens, UniProt P35968)
[41] = target: Mitogen-activated protein kinase kinase kinase kinase 4 (Homo sapiens, UniProt O95819)
[42] = target: Insulin-like growth factor 1 receptor (Homo sapiens, UniProt P08069); assay: Navigating the Kinome. Panel member name: IGF1R
[43] = target: Cyclin-dependent kinase 7 (Homo sapiens, UniProt P50613);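 further: value comes from a kinome-wide kinase profiling panel in which CDK7 is one member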
[44] = target: Death-associated protein kinase 3 (Homo sapiens, UniProt O43293);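 further: measured as one member of a kinome-wide profiling panel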
[45] = target: Cyclin-dependent kinase 9 (Homo sapiens, UniProt P50750);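 further: value from the CDK9 entry of a kinome-spanning kinase panel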
[46] = target: Tyrosine-protein kinase receptor TYRO3 (Homo sapiens, UniProt Q06418);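 further: TYRO3 value obtained as one member of a kinome-wide profiling panel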
[47] = target: Proto-oncogene tyrosine-protein kinase receptor Ret (Homo sapiens, UniProt P07949);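 further: measured within a kinome-wide profiling panel, RET as the panel member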
[48] = target: Tyrosine-protein kinase JAK2 (Homo sapiens, UniProt O60674);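 further: JAK2 tested as one member of a kinase panel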
[49] = target: Serine/threonine-protein kinase TBK1 (Homo sapiens, UniProt Q9UHD2); assay: Navigating the Kinome. Panel member name: TBK1
Sequence of Serine/threonine-protein kinase TBK1 (Q9UHD2 whole entry): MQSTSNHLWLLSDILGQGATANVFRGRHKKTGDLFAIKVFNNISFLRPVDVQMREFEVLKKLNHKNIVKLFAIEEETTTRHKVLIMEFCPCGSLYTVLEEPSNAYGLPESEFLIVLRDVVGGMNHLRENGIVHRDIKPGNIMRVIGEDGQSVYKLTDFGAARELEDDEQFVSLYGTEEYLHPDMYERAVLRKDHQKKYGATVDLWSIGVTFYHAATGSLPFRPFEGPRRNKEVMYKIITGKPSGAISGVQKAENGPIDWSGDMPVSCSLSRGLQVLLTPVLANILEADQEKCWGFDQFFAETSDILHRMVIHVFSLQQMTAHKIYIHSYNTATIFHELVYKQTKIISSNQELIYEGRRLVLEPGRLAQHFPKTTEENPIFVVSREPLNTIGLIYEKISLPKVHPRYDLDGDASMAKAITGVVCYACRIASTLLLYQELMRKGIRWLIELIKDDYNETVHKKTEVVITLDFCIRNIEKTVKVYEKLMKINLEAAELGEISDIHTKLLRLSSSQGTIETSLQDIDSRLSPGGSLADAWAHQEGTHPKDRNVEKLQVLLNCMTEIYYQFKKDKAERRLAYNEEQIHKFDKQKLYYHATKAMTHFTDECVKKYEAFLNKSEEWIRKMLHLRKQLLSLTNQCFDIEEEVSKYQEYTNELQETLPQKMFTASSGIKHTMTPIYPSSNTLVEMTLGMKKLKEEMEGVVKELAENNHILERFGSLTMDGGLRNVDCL

[50] = target: Mitogen-activated protein kinase 14 (Homo sapiens, UniProt Q16539);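 further: part of a kinome-wide panel, MAPK14 entry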
[51] = target: Mitogen-activated protein kinase 9 (Homo sapiens, UniProt P45984);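 further: value from a kinome panel profiling assay, MAPK9 panel entry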
[52] = target: Cyclin-dependent kinase 5 (Homo sapiens, UniProt Q00535);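 further: CDK5 measured as one member of a kinase profiling panel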
Sequence of Cyclin-dependent kinase 5 (Q00535 whole entry): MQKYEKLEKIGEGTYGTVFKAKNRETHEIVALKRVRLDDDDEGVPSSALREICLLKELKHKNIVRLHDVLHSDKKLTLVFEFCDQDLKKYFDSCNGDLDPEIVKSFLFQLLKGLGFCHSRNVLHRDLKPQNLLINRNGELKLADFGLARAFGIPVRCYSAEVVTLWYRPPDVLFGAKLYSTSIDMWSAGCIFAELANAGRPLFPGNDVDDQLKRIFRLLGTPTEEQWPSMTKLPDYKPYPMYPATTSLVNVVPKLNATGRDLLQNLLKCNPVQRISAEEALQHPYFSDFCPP

[53] = target: Tyrosine-protein kinase ABL1 (Homo sapiens, UniProt P00519)
[54] = target: Macrophage-stimulating protein receptor (Homo sapiens, UniProt Q04912); assay: Navigating the Kinome. Panel member name: MST1R
[55] = target: Serine/threonine-protein kinase D3 (Homo sapiens, UniProt O94806);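 further: determined within a kinase panel screen, with PRKCN as the panel member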
[56] = target: Dual specificity mitogen-activated protein kinase kinase 1 (Homo sapiens, UniProt Q02750); assay: Navigating the Kinome. Panel member name: MAP2K1
[57] = target: cAMP-dependent protein kinase catalytic subunit alpha (Homo sapiens, UniProt P17612)
[58] = target: Platelet-derived growth factor receptor alpha (Homo sapiens, UniProt P16234); assay: Navigating the Kinome. Panel member name: PDGFRA
Sequence of Platelet-derived growth factor receptor alpha (P16234 whole entry): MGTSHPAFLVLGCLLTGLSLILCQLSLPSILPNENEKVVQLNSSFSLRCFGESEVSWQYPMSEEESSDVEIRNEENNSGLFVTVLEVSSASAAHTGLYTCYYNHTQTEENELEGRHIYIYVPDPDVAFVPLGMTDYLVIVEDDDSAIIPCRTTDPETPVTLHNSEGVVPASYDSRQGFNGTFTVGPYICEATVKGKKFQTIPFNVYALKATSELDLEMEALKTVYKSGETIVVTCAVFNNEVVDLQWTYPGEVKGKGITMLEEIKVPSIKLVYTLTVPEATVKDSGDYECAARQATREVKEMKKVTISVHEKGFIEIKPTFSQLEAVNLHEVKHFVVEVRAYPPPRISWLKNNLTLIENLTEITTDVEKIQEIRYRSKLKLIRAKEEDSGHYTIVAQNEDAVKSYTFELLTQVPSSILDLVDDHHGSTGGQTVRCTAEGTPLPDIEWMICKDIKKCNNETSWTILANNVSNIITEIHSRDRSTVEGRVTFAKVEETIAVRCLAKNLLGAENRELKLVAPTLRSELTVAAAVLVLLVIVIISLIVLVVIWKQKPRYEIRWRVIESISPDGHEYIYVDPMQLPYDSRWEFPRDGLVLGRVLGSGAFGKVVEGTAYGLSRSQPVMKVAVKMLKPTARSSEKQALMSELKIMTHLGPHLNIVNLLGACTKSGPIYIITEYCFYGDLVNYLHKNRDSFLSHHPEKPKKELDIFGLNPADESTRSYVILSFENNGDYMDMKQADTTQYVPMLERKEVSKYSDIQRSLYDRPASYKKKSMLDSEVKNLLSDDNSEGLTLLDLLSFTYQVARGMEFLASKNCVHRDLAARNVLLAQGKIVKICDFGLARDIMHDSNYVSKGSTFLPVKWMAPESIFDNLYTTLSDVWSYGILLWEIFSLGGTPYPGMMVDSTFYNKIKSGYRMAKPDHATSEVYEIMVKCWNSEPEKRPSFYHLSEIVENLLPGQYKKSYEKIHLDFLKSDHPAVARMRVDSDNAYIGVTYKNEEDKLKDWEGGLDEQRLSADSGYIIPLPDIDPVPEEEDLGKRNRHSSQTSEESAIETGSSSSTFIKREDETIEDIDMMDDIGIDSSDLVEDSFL

Aurora kinase A = Aurora kinase A (Homo sapiens, UniProt O14965);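 further: value from the Navigating the Kinome kinase panel profiling, panel entry STK6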
[59] = target: Protein kinase C theta type (Homo sapiens, UniProt Q04759); assay: Navigating the Kinome. Panel member name: PRKCQ
Activin receptor type-1 = Activin receptor type-1 (Homo sapiens, UniProt Q04771); assay: Navigating the Kinome. Panel member name: ACVR1

EC50 [1]: 2.25 µM (active)
EC50 [3]: 8.95 µM (active)
EC50 [4]: 9.48 µM (active) and 8.03 µM (active)
Compound: CC(Cc1c[nH]c2ccccc12)C(=O)O (stereo not drawn)
EC50 [2]: > 99 µM (inactive) and > 100 µM (inactive)

IC50 [5]: 0.417 µM (active)
IC50 [6]: 0.417 µM (active)
Compound: N#CC(c1ccsc1)c1c(Br)cnn(Cc2cccc3ccccc23)c1=O (stereo not drawn)

Ki (Aurora kinase B): > 3.98 µM (inactive)
Ki [7]: > 6.31 µM (inactive)
Ki [8]: > 3.98 µM (inactive)
Ki [9]: > 2 µM (inactive)
Ki [10]: 0.158 µM (active)
Ki [11]: > 3.98 µM (inactive)
Ki [12]: > 3.98 µM (inactive)
Ki [13]: > 6.31 µM (inactive)
Ki [14]: > 6.31 µM (inactive)
Ki [15]: > 3.98 µM (inactive)
Ki [16]: > 3.16 µM (inactive)
Ki [17]: > 5.01 µM (inactive)
Ki [18]: > 3.98 µM (inactive)
Ki [19]: 0.0631 µM (active)
Ki [20]: > 5.01 µM (inactive)
Ki (Activated CDC42 kinase 1): > 3.98 µM (inactive)
Ki [21]: 3.16 µM (active)
Ki [22]: > 3.16 µM (inactive)
Ki [23]: > 5.01 µM (inactive)
Ki [24]: > 2.51 µM (inactive)
Ki [25]: > 6.31 µM (inactive)
Ki [26]: 0.0398 µM (active)
Ki [27]: > 3.98 µM (inactive)
Ki [28]: > 3.98 µM (inactive)
Ki [29]: > 2.51 µM (inactive)
Ki [30]: 1.58 µM (active)
Ki [31]: 0.0631 µM (active)
Ki [32]: > 3.16 µM (inactive)
Ki [33]: > 3.16 µM (inactive)
Ki [34]: > 7.94 µM (inactive)
Ki [35]: > 2.51 µM (inactive)
Ki [36]: > 3.16 µM (inactive)
Ki [37]: > 2.51 µM (inactive)
Ki [38]: > 6.31 µM (inactive)
Ki [39]: > 2.51 µM (inactive)
Ki [40]: > 2.51 µM (inactive)
Ki [41]: > 5.01 µM (inactive)
Ki [42]: > 2.51 µM (inactive)
Ki [43]: > 3.98 µM (inactive)
Ki [45]: > 1.58 µM (inactive)
Ki [46]: 2.51 µM (active)
Ki [47]: > 3.16 µM (inactive)
Ki [48]: > 2.51 µM (inactive)
Ki [49]: > 3.16 µM (inactive)
Ki [50]: > 3.98 µM (inactive)
Ki [51]: > 3.98 µM (inactive)
Ki [52]: > 3.16 µM (inactive)
Ki [53]: 2 µM (active)
Ki [54]: > 3.98 µM (inactive)
Ki [55]: > 3.98 µM (inactive)
Ki [56]: > 3.16 µM (inactive)
Ki [57]: > 1.26 µM (inactive)
Ki [58]: > 2.51 µM (inactive)
Ki (Aurora kinase A): > 1.58 µM (inactive)
Ki [59]: > 2.51 µM (inactive)
Ki (Activin receptor type-1): 1.58 µM (active)
Compound: O=C(Nc1cccc(C(F)(F)F)n1)Nc1ccnc2ccc(Cl)cc12
Ki [44]: 5.01 µM (active)
